Earlier results as cited in patent US12296036B2, “Method for dyeing keratinous material, including the application of an organosilicon compound, a dyeing compound, a sealing reagent and an alkaline pre-treatment agent” (HENKEL AG & CO. KGAA, priority 2021, dated 2025).

Row | SMILES | solubility in water (25° C.) | also measured
1 | O=C([O-])C1=NN(c2ccc(S(=O)(=O)[O-])cc2)C(=O)C1N=Nc1ccc(S(=O)(=O)[O-])cc1.[Na+].[Na+].[Na+] (centres unmarked) [Acid Yellow 23, trisodium salt of 4,5-dihydro-5-oxo-1-(4-sulfophenyl)-4-((4-sulfophenyl)azo)-1H-pyrazole-3-carboxylic acid] | – | solubility in water (in words) (in water at 25° C.): readily soluble
2 | Nc1cc(S(=O)(=O)[O-])cc2cc(S(=O)(=O)[O-])c(N=Nc3ccccc3)c(O)c12.[Na+].[Na+] [Acid Red 33, disodium salt of 5-amino-4-hydroxy-3-(phenylazo)-naphthalene-2,7-disulfonate] | 2500 µg/mL | –
3 | O=S(=O)([O-])c1ccc(N=Nc2c(O)ccc3ccccc23)cc1.[Na+] [Acid Orange 7, sodium salt of 4-[(2-hydroxy-1-naphthyl)azo]benzene sulphonate] | more than 7 g/L | –
4 | CCN(Cc1cccc(S(=O)(=O)[O-])c1)c1ccc(C(=C2C=CC(=[N+](CC)Cc3cccc(S(=O)(=O)[O-])c3)C=C2)c2ccccc2S(=O)(=O)[O-])cc1.[Na+].[Na+] [Acid Blue 9] | – | water solubility (25° C.): more than 20 wt. %
5 | O=C([O-])c1c(Cl)c(Cl)c(Cl)c(Cl)c1-c1c2cc(Br)c(=O)c(Br)c-2oc2c(Br)c([O-])c(Br)cc12.[Na+].[Na+] [Acid Red 92, disodium salt of 3,4,5,6-tetrachloro-2-(1,4,5,8-tetrabromo-6-hydroxy-3-oxanthene-9-yl) benzoic acid] | greater than 10 g/L | –
